Measurements published in patent US20260174783A1, “HALOBETASOL PROPIONATE-LIDOCAINE FORMULATIONS” (priority 2023, published 2026).

Test: In vitro permeation test: delivery of Halobetasol Propionate to the skin
Assay type: in vitro ADME
Details: Formulations 1 and 2
Text: The ability of the formulations of the present invention to deliver the APIs to their active sites was investigated by in vitro permeation tests.

Halobetasol Propionate receiver media concentration: no receiver media concentration
SMILES: CCC(=O)O[C@]1(C(=O)CCl)[C@@H](C)C[C@H]2[C@@H]3C[C@H](F)C4=CC(=O)C=C[C@]4(C)[C@@]3(F)[C@@H](O)C[C@@]21C [Halobetasol Propionate, (6α, 11β, 16β)-21-Chloro-6,9-difluoro-11-hydroxy-16-methyl-17-(1-oxopropoxy) pregna-1,4-diene-3,20-dione]
